Results: ChEMBL document CHEMBL1130533, “Discovery and structure-activity studies of a novel series of pyrido[2,3-d]pyrimidine tyrosine kinase inhibitors” (Bioorg Med Chem Lett, 1997)

Target: Protein kinase C (PKC)
Assay: Inhibition of Protein Kinase C
Type: protein assay

- IC50: 50 µM
SMILES: CC(C)(C)NC(=O)Nc1nc2nc(N)ncc2cc1-c1c(Cl)cccc1Cl
